In ChEMBL document CHEMBL5550199, “Rational In Silico Design of Selective TMPRSS6 Peptidomimetic Inhibitors via Exploitation of the S2 Subpocket” (J Med Chem, 2024):
Converted amounts (≈) assume the structure as drawn. Values belong to the compound of their own block, whether it stands above or below them. The source made the active and inactive calls. No cut-off for these calls is given here.

Key:
[1] = biological target: T1, Transmembrane protease serine 6 (Homo sapiens, UniProt Q8IU80); assay: Binding affinity to recombinant human TMPRSS6 using Boc-QAR-AMC as substrate assessed as inhibition constant by fluorescence based analysis
T1 sequence (Q8IU80 whole entry): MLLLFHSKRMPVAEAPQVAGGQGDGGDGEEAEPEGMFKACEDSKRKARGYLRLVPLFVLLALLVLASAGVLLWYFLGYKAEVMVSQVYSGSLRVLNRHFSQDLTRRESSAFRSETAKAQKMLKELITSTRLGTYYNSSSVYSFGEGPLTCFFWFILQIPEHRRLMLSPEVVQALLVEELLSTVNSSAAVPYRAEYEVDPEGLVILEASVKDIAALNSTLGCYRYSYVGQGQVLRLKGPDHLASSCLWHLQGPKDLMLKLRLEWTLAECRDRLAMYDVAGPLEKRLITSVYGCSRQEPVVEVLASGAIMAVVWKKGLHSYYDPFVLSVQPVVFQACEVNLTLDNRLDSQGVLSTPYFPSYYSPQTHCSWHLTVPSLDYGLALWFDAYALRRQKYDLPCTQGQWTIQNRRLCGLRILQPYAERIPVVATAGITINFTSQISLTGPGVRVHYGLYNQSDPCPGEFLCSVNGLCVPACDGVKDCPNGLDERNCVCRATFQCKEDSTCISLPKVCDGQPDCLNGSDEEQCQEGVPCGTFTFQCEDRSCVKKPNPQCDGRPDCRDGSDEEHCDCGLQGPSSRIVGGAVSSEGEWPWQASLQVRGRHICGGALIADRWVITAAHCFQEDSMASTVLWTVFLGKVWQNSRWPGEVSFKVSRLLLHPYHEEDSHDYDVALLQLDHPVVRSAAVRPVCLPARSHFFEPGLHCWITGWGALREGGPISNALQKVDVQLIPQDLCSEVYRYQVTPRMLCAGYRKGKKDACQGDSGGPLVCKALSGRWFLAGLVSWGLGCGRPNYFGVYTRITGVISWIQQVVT

[2] = biological target: T2, Suppressor of tumorigenicity 14 protein (Homo sapiens, UniProt Q9Y5Y6); assay: Binding affinity to recombinant human Matriptase using Boc-QAR-AMC as substrate assessed as inhibition constant by fluorescence based analysis
T2 sequence (Q9Y5Y6 whole entry): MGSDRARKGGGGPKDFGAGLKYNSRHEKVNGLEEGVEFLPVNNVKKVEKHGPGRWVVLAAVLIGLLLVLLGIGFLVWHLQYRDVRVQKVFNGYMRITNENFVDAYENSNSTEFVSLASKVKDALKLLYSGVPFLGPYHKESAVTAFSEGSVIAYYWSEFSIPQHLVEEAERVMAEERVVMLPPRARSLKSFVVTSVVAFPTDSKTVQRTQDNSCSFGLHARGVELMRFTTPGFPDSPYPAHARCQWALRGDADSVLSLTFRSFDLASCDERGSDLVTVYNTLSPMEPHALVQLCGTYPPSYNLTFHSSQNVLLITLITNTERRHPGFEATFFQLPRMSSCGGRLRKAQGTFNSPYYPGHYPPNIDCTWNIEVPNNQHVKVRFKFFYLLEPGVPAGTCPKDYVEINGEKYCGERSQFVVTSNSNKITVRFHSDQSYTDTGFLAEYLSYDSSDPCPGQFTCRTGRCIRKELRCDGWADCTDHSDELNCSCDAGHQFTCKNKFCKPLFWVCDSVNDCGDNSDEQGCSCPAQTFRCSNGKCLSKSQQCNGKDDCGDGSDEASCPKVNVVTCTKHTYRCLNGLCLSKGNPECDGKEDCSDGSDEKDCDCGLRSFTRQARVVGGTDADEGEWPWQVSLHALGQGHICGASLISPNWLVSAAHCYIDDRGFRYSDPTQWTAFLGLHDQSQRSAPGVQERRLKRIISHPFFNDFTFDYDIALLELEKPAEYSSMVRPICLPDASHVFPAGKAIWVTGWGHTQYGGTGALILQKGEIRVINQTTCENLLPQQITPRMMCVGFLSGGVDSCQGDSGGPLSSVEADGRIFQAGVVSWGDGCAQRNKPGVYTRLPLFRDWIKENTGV

[3] = organism: Homo sapiens; assay: Selectivity index, ratio of Ki for binding affinity to recombinant human Matriptase using Boc-QAR-AMC as substrate assessed as inhibition constant by fluorescence based analysis to Ki for binding affinity to recombinant human TMPRSS6 using Boc-QAR-AMC as substrate assessed as inhibition constant by fluorescence based analysis
[4] = biological target: T3, Transmembrane protease serine 6 (Homo sapiens) (UniProt Q8IU80); assay: Inhibition of recombinant human TMPRSS6 at 100 nM by Michaelis-Menten analysis relative to control
T3 sequence (whole entry): T1 sequence (Q8IU80 whole entry)

[5] = biological target: T4, Suppressor of tumorigenicity 14 protein (Homo sapiens) (UniProt Q9Y5Y6); assay: Inhibition of recombinant human Matriptase at 100 nM by Michaelis-Menten analysis relative to control
T4 sequence (whole entry): T2 sequence (Q9Y5Y6 whole entry)

[6] = Cytotoxicity against HEK cells assessed as reduction in cell viability measured for 24 hrs by celltiter-glo 2.0 assay; format: toxicity, cell-based; conditions: human
[7] = biological target: T2, Suppressor of tumorigenicity 14 protein; assay: Mixed inhibition of recombinant human Matriptase using Boc-QAR-AMC as substrate assessed as inhibition constant by fluorescence based analysis
[8] = biological target: T1, Transmembrane protease serine 6; assay: Competitive tight binding inhibition of recombinant human TMPRSS6 using Boc-QAR-AMC as substrate assessed as inhibition constant by fluorescence based analysis
[9] = organism: Homo sapiens; assay: Selectivity index, ratio of Ki for mixed inhibition of recombinant human Matriptase using Boc-QAR-AMC as substrate assessed as inhibition constant by fluorescence based analysis to Ki for competitive tight binding inhibition of recombinant human TMPRSS6 using Boc-QAR-AMC as substrate assessed as inhibition constant by fluorescence based analysis
[10] = biological target: Prothrombin (Homo sapiens, UniProt P00734); assay: Inhibition of recombinant human thrombin using Boc-QAR-AMC as substrate assessed as inhibition constant by fluorescence based analysis
[11] = biological target: Coagulation factor X (Homo sapiens, UniProt P00742); assay: Inhibition of recombinant human FXA using Boc-QAR-AMC as substrate assessed as inhibition constant by fluorescence based analysis
Coagulation factor X, sequence (P00742 41-179 limits assumed): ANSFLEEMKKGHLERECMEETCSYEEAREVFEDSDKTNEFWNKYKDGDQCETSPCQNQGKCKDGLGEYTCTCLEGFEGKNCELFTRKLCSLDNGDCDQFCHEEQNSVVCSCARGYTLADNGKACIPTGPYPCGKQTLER
Coagulation factor X, sequence (P00742 235-488 limits assumed): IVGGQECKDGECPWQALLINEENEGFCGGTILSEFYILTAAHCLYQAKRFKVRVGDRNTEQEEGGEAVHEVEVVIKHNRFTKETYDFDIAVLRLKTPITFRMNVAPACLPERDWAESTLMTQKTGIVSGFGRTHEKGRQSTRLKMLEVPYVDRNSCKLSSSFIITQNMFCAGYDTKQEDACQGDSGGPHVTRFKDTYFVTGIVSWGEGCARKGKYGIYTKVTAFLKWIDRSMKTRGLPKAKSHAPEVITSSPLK

[12] = biological target: Furin (Homo sapiens, UniProt P09958); assay: Inhibition of recombinant human furin using Boc-RVRR-AMC as substrate assessed as inhibition constant by fluorescence based analysis
Furin, sequence (P09958 whole entry): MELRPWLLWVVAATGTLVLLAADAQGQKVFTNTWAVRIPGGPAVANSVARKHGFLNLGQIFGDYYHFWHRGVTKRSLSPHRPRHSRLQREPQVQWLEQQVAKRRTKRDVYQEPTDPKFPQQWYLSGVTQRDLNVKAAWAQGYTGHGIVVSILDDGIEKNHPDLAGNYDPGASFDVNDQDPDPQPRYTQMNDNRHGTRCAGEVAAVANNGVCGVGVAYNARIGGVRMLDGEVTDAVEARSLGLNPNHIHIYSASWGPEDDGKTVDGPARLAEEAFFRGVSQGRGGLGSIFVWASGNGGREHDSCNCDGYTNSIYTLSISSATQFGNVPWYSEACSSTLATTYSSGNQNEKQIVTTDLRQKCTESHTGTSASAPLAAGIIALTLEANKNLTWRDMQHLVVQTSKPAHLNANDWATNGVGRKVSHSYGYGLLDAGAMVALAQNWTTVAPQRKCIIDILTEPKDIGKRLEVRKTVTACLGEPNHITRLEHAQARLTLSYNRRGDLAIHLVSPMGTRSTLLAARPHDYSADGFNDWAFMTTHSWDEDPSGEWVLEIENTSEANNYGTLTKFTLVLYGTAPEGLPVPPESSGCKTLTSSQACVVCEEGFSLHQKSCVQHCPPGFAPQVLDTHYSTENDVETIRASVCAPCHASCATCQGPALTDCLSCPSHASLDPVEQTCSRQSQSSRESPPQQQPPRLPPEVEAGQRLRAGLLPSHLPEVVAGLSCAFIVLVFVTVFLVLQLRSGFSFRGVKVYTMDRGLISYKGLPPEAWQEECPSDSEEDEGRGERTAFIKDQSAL

[13] = biological target: T1, Transmembrane protease serine 6; assay: Inhibition of human TMPRSS6 transfected in HEK293SL cells using Boc-QAR-AMC as substrate measured for 24 hrs; format: cell-based
[14] = biological target: T2, Suppressor of tumorigenicity 14 protein; assay: Inhibition of human Matriptase transfected in HEK293SL cells using Boc-QAR-AMC as substrate measured for 24 hrs; format: cell-based
[15] = organism: Homo sapiens; assay: Selectivity index, ratio of IC50 for inhibition of human Matriptase transfected in HEK293SL cells using Boc-QAR-AMC as substrate to IC50 for inhibition of human TMPRSS6 transfected in HEK293SL cells using Boc-QAR-AMC as substrate; format: cell-based
[16] = Solubility of compound in PBS at pH 7.4 measured for 90 mins by UPLC analysis; format: physicochemical; conditions: buffer, pH 7.4, 1.5 h
[17] = Stability in Sprague-Dawley rat plasma assessed as parent compound remaining at 24 hrs by UPLC-MS analysis; format: ADME, cell-free
[18] = Metabolic stability in Sprague-Dawley rat microsome assessed as half life measured for 120 mins in presence of NADPH by UPLC-MS analysis; format: ADME; conditions: microsomes, 2 h
[19] = Metabolic stability in Sprague-Dawley rat microsome assessed as intrinsic clearance measured for 120 mins in presence of NADPH by UPLC-MS analysis; format: ADME; conditions: microsomes, 2 h
[20] = Apparent Permeability of compound in PBS buffer at pH 7.4 incubated for 17 hrs by PAMPA assay; format: ADME; conditions: pH 7.4, 17 h
[21] = tested on: Caco-2; assay: Disruption of epithelial integrity in human Caco-2 cells assessed as change in TEER modulation after 8 days; format: functional, cell-based; conditions: Caco-2, 192 h

SMILES: N=C(N)NCCC[C@H](NC(=O)[C@H](Cc1ccc2ccccc2c1)NC(=O)[C@H](Cc1cscn1)NC(=O)CCc1ccccc1)C(=O)c1nc2ccccc2s1
Ki [1]: 7.9 nM
Ki [2]: 53 nM
Ratio Ki [3]: 6.7

SMILES: N=C(N)NCCC[C@H](NC(=O)[C@H](CCC1CCCCC1)NC(=O)[C@H](Cc1cscn1)NC(=O)CCc1ccccc1)C(=O)c1nc2ccccc2s1
Ki [1]: 8.3 nM
Ki [2]: 12.3 nM
Ratio Ki [3]: 1.5

SMILES: N=C(N)NCCC[C@H](NC(=O)[C@H](Cc1ccc(C(=O)c2ccccc2)cc1)NC(=O)[C@H](Cc1cscn1)NC(=O)CCc1ccccc1)C(=O)c1nc2ccccc2s1
inhibition [4]: inactive
inhibition [5]: inactive

SMILES: N=C(N)NCCC[C@H](NC(=O)[C@H](CCc1ccccc1)NC(=O)[C@H](Cc1cscn1)NC(=O)CCc1ccccc1)C(=O)c1nc2ccccc2s1
Ki [1]: 2.2 nM
Ki [2]: 3.3 nM
Ratio Ki [3]: 1.5

SMILES: N=C(N)NCCC[C@H](NC(=O)[C@H](Cc1ccc(OCc2ccccc2)cc1)NC(=O)[C@H](Cc1cscn1)NC(=O)CCc1ccccc1)C(=O)c1nc2ccccc2s1
Ki [1]: 5.6 nM
Ki [2]: 26.8 nM
Ratio Ki [3]: 4.8

SMILES: N=C(N)NCCC[C@H](NC(=O)[C@H](Cc1ccccc1)NC(=O)[C@H](Cc1cscn1)NC(=O)CCc1ccccc1)C(=O)c1nc2ccccc2s1
Ki [1]: 1.4 nM
Ki [2]: 4.1 nM
Ratio Ki [3]: 2.9

SMILES: N=C(N)NCCC[C@H](NC(=O)[C@@H](NC(=O)[C@H](Cc1cscn1)NC(=O)CCc1ccccc1)c1ccccc1)C(=O)c1nc2ccccc2s1
Ki [1]: 12.5 nM
Ki [2]: 33.6 nM
Ratio Ki [3]: 2.6

SMILES: N=C(N)NCCC[C@H](NC(=O)[C@H](CC12CC3CC(CC(C3)C1)C2)NC(=O)[C@H](Cc1cscn1)NC(=O)CCc1ccccc1)C(=O)c1nc2ccccc2s1
inhibition [4]: inactive
inhibition [5]: inactive

SMILES: N=C(N)NCCC[C@H](NC(=O)[C@H](Cc1cccc2ccccc12)NC(=O)[C@H](Cc1cscn1)NC(=O)CCc1ccccc1)C(=O)c1nc2ccccc2s1
Ki [1]: 3.7 nM
Ki [2]: 45.3 nM
Ratio Ki [3]: 12
Activity [6]: Non-Toxic

SMILES: N=C(N)NCCC[C@H](NC(=O)[C@H](CC1CCCCC1)NC(=O)[C@H](Cc1cscn1)NC(=O)CCc1ccccc1)C(=O)c1nc2ccccc2s1
Ki [1]: 3.9 nM
Ki [2]: 9.1 nM
Ratio Ki [3]: 2.3

SMILES: N=C(N)NCCC[C@H](NC(=O)[C@@H](NC(=O)[C@H](CCc1ccccc1)NC(=O)CCc1ccccc1)C1CCCCC1)C(=O)c1nc2ccccc2s1
Ki [7]: 618 nM
Ki [8]: 5.2 nM
Ratio Ki [9]: 119
Ki [10]: 395 nM
Ki [11]: > 10000 nM
Ki [12]: > 10000 nM
IC50 [13]: 332 nM
IC50 [14]: 6070 nM
Ratio IC50 [15]: 18
Stability [17]: 100%
t1/2 [18]: > 2 h
CLH [19]: 1.4 µL/min/mg
Papp [20]: 0.01 10^-6 cm/s
IC50 [21]: 6100 nM

Now from value to compound, other results behind:

Ki [1]: 1.2 nM
Ki [2]: 11.3 nM
Ratio Ki [3]: 9.4
SMILES: CC[C@H](C)[C@H](NC(=O)[C@H](Cc1cscn1)NC(=O)CCc1ccccc1)C(=O)N[C@@H](CCCNC(=N)N)C(=O)c1nc2ccccc2s1

Ki [1]: 4.6 nM
Ki [2]: 50.8 nM
Ratio Ki [3]: 11
SMILES: CC(C)(C)C[C@H](NC(=O)[C@H](Cc1cscn1)NC(=O)CCc1ccccc1)C(=O)N[C@@H](CCCNC(=N)N)C(=O)c1nc2ccccc2s1

inhibition [4]: 20%
inhibition [5]: 20%
SMILES: CCCC[C@H](NC(=O)[C@H](Cc1cscn1)NC(=O)CCc1ccccc1)C(=O)N[C@@H](CCCNC(=N)N)C(=O)c1nc2ccccc2s1

inhibition [4]: 20%
inhibition [5]: 20%
SMILES: CC[C@H](NC(=O)[C@H](Cc1cscn1)NC(=O)CCc1ccccc1)C(=O)N[C@@H](CCCNC(=N)N)C(=O)c1nc2ccccc2s1

Ki [1]: 1.5 nM
Ki [2]: 5 nM
Ratio Ki [3]: 3.3
SMILES: CC(C)C[C@H](NC(=O)[C@H](Cc1cscn1)NC(=O)CCc1ccccc1)C(=O)N[C@@H](CCCNC(=N)N)C(=O)c1nc2ccccc2s1

Ki [1]: 1.4 nM
Ki [2]: 8.8 nM
Ratio Ki [3]: 6.3
SMILES: CC[C@@H](C)[C@H](NC(=O)[C@H](Cc1cscn1)NC(=O)CCc1ccccc1)C(=O)N[C@@H](CCCNC(=N)N)C(=O)c1nc2ccccc2s1

Ki [1]: 3.4 nM
Ki [2]: 99.2 nM
Ratio Ki [3]: 29
Ki [7]: 100 nM
Ki [8]: 5.3 nM
Ratio Ki [9]: 19
Ki [10]: 120 nM
Ki [11]: > 10000 nM
Ki [12]: > 10000 nM
IC50 [13]: 22 nM
IC50 [14]: 352 nM
solubility [16]: 158 µM (≈ 113 µg/mL)
Stability [17]: 65%
t1/2 [18]: > 2 h
CLH [19]: 1.12 µL/min/mg
Papp [20]: 0.017 10^-6 cm/s
SMILES: N=C(N)NCCC[C@H](NC(=O)[C@@H](NC(=O)[C@H](Cc1cscn1)NC(=O)CCc1ccccc1)C1CCCCC1)C(=O)c1nc2ccccc2s1
Activity [6]: Non-Toxic
Ratio IC50 [15]: 16

inhibition [4]: 20%
inhibition [5]: 20%
SMILES: CCC[C@H](NC(=O)[C@H](Cc1cscn1)NC(=O)CCc1ccccc1)C(=O)N[C@@H](CCCNC(=N)N)C(=O)c1nc2ccccc2s1
